# Test results published in PubChem BioAssay (NCI).
#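 Cells were grown in 96-well plates and exposed to each compound for 48 hours at five concentrations; endpoints were interpolated linearly between bracketing concentrations, or set to the highest concentration if not reached. Here, GI50 denotes the concentration required for 50% inhibition of growth. TGI: total growth inhibition.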
# Tests used:
# Experiment in all cases: DTP human tumour cell line panel, 48 h
# RXF 393 renal = test system: RXF 393 renal
# TK-10 renal = test system: TK-10 renal
# NCI-H460 lung = test system: NCI-H460 lung
# MDA-MB-231 breast = test system: MDA-MB-231 breast
# A549 NSCLC = test system: A549 NSCLC
# LOX IMVI melanoma = test system: LOX IMVI melanoma
# OVCAR-4 ovarian = test system: OVCAR-4 ovarian
# SR leukemia = test system: SR leukemia
# MDA-MB-468 breast = test system: MDA-MB-468 breast
# OVCAR-8 ovarian = test system: OVCAR-8 ovarian
# NCI-H23 lung = test system: NCI-H23 lung
# HOP-92 NSCLC = test system: HOP-92 NSCLC
# SK-MEL-28 melanoma = test system: SK-MEL-28 melanoma
# DU-145 prostate = test system: DU-145 prostate
# RPMI-8226 leukemia = test system: RPMI-8226 leukemia
# SNB-75 CNS = test system: SNB-75 CNS
# T-47D breast = test system: T-47D breast
# HT29 colon = test system: HT29 colon
# 786-0 renal = test system: 786-0 renal
# NCI/ADR-RES ovarian = test system: NCI/ADR-RES ovarian
# UACC-257 melanoma = test system: UACC-257 melanoma
# HCT-15 colon = test system: HCT-15 colon
# SK-OV-3 ovarian = test system: SK-OV-3 ovarian
# SK-MEL-5 melanoma = test system: SK-MEL-5 melanoma
# HOP-62 NSCLC = test system: HOP-62 NSCLC
# SW-620 colon = test system: SW-620 colon
# SF-539 CNS = test system: SF-539 CNS
# A498 renal = test system: A498 renal
# NCI-H226 lung = test system: NCI-H226 lung
# MCF7 breast = test system: MCF7 breast
# SF-268 CNS = test system: SF-268 CNS
# PC-3 prostate = test system: PC-3 prostate
# CCRF-CEM leukemia = test system: CCRF-CEM leukemia
# K-562 leukemia = test system: K-562 leukemia
# HL-60(TB) leukemia = test system: HL-60(TB) leukemia
# U251 CNS = test system: U251 CNS
# MALME-3M melanoma = test system: MALME-3M melanoma
# ACHN renal = test system: ACHN renal
# BT-549 breast = test system: BT-549 breast
# HCT-116 colon = test system: HCT-116 colon
# OVCAR-5 ovarian = test system: OVCAR-5 ovarian
# UO-31 renal = test system: UO-31 renal
# SN12C renal = test system: SN12C renal
# HCC-2998 colon = test system: HCC-2998 colon
# HS 578T breast = test system: HS 578T breast
# COLO 205 colon = test system: COLO 205 colon
# SK-MEL-2 melanoma = test system: SK-MEL-2 melanoma
# IGROV1 ovarian = test system: IGROV1 ovarian
# SNB-19 CNS = test system: SNB-19 CNS
# M14 melanoma = test system: M14 melanoma
# MDA-MB-435 = test system: MDA-MB-435
# UACC-62 melanoma = test system: UACC-62 melanoma
# KM12 colon = test system: KM12 colon
# EKVX NSCLC = test system: EKVX NSCLC
# OVCAR-3 ovarian = test system: OVCAR-3 ovarian
# MOLT-4 leukemia = test system: MOLT-4 leukemia
# SF-295 CNS = test system: SF-295 CNS
# NCI-H522 lung = test system: NCI-H522 lung
# CAKI-1 renal = test system: CAKI-1 renal
structure (smiles),measurement,setting,value
CC(=O)Nc1ccc(-c2cn(-c3cccc(C(=O)Nc4ccc(F)c(C(F)(F)F)c4)c3)nn2)cn1,GI50,RXF 393 renal,14.5 µM
same,TGI,RXF 393 renal,31.6 µM
same,GI50,TK-10 renal,23.7 µM
same,TGI,TK-10 renal,41.1 µM
same,GI50,NCI-H460 lung,16.8 µM
same,TGI,NCI-H460 lung,32.2 µM
same,GI50,MDA-MB-231 breast,11.2 µM
same,TGI,MDA-MB-231 breast,24.1 µM
same,GI50,A549 NSCLC,25.2 µM
same,TGI,A549 NSCLC,68.5 µM
same,GI50,LOX IMVI melanoma,13.8 µM
same,TGI,LOX IMVI melanoma,26.7 µM
same,GI50,OVCAR-4 ovarian,20.3 µM
same,TGI,OVCAR-4 ovarian,40.9 µM
same,GI50,SR leukemia,31 µM
same,TGI,SR leukemia,> 100 µM
same,GI50,MDA-MB-468 breast,14.8 µM
same,TGI,MDA-MB-468 breast,29 µM
same,GI50,OVCAR-8 ovarian,28 µM
same,TGI,OVCAR-8 ovarian,89.8 µM
same,GI50,NCI-H23 lung,14.8 µM
same,TGI,NCI-H23 lung,28.8 µM
same,GI50,HOP-92 NSCLC,15.8 µM
same,TGI,HOP-92 NSCLC,35.1 µM
same,GI50,SK-MEL-28 melanoma,14.6 µM
same,TGI,SK-MEL-28 melanoma,28 µM
same,GI50,DU-145 prostate,27 µM
same,TGI,DU-145 prostate,79.3 µM
same,GI50,RPMI-8226 leukemia,24.3 µM
same,TGI,RPMI-8226 leukemia,66.2 µM
same,GI50,SNB-75 CNS,13.8 µM
same,TGI,SNB-75 CNS,35.7 µM
same,GI50,T-47D breast,22.9 µM
same,TGI,T-47D breast,66.4 µM
same,GI50,HT29 colon,16.3 µM
same,TGI,HT29 colon,33.6 µM
same,GI50,786-0 renal,2.6 µM
same,TGI,786-0 renal,11.1 µM
same,GI50,NCI/ADR-RES ovarian,27.5 µM
same,TGI,NCI/ADR-RES ovarian,89.1 µM
same,GI50,UACC-257 melanoma,17.6 µM
same,TGI,UACC-257 melanoma,38.6 µM
same,GI50,HCT-15 colon,17.2 µM
same,TGI,HCT-15 colon,33.4 µM
same,GI50,SK-OV-3 ovarian,20.7 µM
same,TGI,SK-OV-3 ovarian,45.4 µM
same,GI50,SK-MEL-5 melanoma,17.2 µM
same,TGI,SK-MEL-5 melanoma,34 µM
same,GI50,HOP-62 NSCLC,21.2 µM
same,TGI,HOP-62 NSCLC,44.6 µM
same,GI50,SW-620 colon,17.1 µM
same,TGI,SW-620 colon,33.8 µM
same,GI50,SF-539 CNS,15.1 µM
same,TGI,SF-539 CNS,28.5 µM
same,GI50,A498 renal,26.6 µM
same,TGI,A498 renal,43.4 µM
same,GI50,NCI-H226 lung,18.4 µM
same,TGI,NCI-H226 lung,36.3 µM
same,GI50,MCF7 breast,16 µM
same,TGI,MCF7 breast,34.3 µM
same,GI50,SF-268 CNS,26.5 µM
same,TGI,SF-268 CNS,63.4 µM
same,GI50,PC-3 prostate,16 µM
same,TGI,PC-3 prostate,38.1 µM
same,GI50,CCRF-CEM leukemia,22.2 µM
same,TGI,CCRF-CEM leukemia,71.5 µM
same,GI50,K-562 leukemia,4.13 µM
same,TGI,K-562 leukemia,24.6 µM
same,GI50,HL-60(TB) leukemia,6.57 µM
same,TGI,HL-60(TB) leukemia,> 100 µM
same,GI50,U251 CNS,23.5 µM
same,TGI,U251 CNS,57.7 µM
same,GI50,MALME-3M melanoma,9.6 µM
same,TGI,MALME-3M melanoma,21.8 µM
same,GI50,ACHN renal,15.7 µM
same,TGI,ACHN renal,30.1 µM
same,GI50,BT-549 breast,13.2 µM
same,TGI,BT-549 breast,30.9 µM
same,GI50,HCT-116 colon,1.47 µM
same,TGI,HCT-116 colon,18.2 µM
same,GI50,OVCAR-5 ovarian,17.7 µM
same,TGI,OVCAR-5 ovarian,35 µM
same,GI50,UO-31 renal,15.4 µM
same,TGI,UO-31 renal,29.6 µM
same,GI50,SN12C renal,16.1 µM
same,TGI,SN12C renal,30.4 µM
same,GI50,HCC-2998 colon,16.9 µM
same,TGI,HCC-2998 colon,32.6 µM
same,GI50,HS 578T breast,17.4 µM
same,TGI,HS 578T breast,66.7 µM
same,GI50,COLO 205 colon,18.3 µM
same,TGI,COLO 205 colon,41.3 µM
same,GI50,SK-MEL-2 melanoma,16.6 µM
same,TGI,SK-MEL-2 melanoma,34.4 µM
same,GI50,IGROV1 ovarian,16.5 µM
same,TGI,IGROV1 ovarian,30.9 µM
same,GI50,SNB-19 CNS,19.5 µM
same,TGI,SNB-19 CNS,34.9 µM
same,GI50,M14 melanoma,15 µM
same,TGI,M14 melanoma,41.3 µM
same,GI50,MDA-MB-435,16.8 µM
same,TGI,MDA-MB-435,32.9 µM
same,GI50,UACC-62 melanoma,14.2 µM
same,TGI,UACC-62 melanoma,27.6 µM
same,GI50,KM12 colon,6.64 µM
same,TGI,KM12 colon,53.5 µM
same,GI50,EKVX NSCLC,18.1 µM
same,TGI,EKVX NSCLC,34 µM
same,GI50,OVCAR-3 ovarian,21.2 µM
same,TGI,OVCAR-3 ovarian,41.4 µM
same,GI50,MOLT-4 leukemia,20.2 µM
same,TGI,MOLT-4 leukemia,61.1 µM
same,GI50,SF-295 CNS,14.6 µM
same,TGI,SF-295 CNS,28.2 µM
same,GI50,NCI-H522 lung,17.7 µM
same,TGI,NCI-H522 lung,38.1 µM
same,GI50,CAKI-1 renal,17.3 µM
same,TGI,CAKI-1 renal,32.7 µM
